Laboratory results as given in article PMC5335257, “Promoting in vivo remyelination with small molecules: a neuroreparative pharmacological treatment for Multiple Sclerosis” (Scientific Reports, 2017).

How the values were obtained:
[1] = system: OPCs isolated from P0 mice; test: Differentiation assay, murine OPCs; type: cell-based, mouse; conditions: murine P0 OPCs, 1 μM, 5, 7 and 10 DIV
Description: (§1) We isolated OPCs, as previously described. Briefly, a stock papain solution was prepared containing ([…]; Worthington Biochemical), L-cysteine (0.2 mg/ml; Sigma), and EDTA (0.2 mg/ml; Sigma) in Hank’s Balanced Salt Solution (HBSS; Invitrogen) without Ca^2+ and Mg[2]. Then, the cerebral cortices of P0 CD1 mice were dissected out and placed for 5 minutes at 37 °C in a medium containing the stock papain solution in HBSS with Ca^2+ and Mg^2+ (1:10; Invitrogen) in order to easily remove the meninges. Once meninges and choroid plexus were removed, the tissue was enzymatically dissociated for 5 minutes at 37 °C again by using the papain solution (1:10 in HBSS without Ca^2+ and Mg^2+) and the digested tissue was then filtered through a 100 μm nylon mesh strainer (BD Biosciences) and seeded on poly-L-ornithine-coated (Sigma) 75 cm^2 flasks in DMEM medium (Invitrogen) containing 10% foetal bovine serum (FBS; BioWhittaker) and 100 U/mL penicillin, 0.1 mg/mL streptomycin and 0.25 μg/ml Amphotericin B antibiotic antimycotic solution (Sigma). Cultures were maintained at 37 °C and 5% CO2, and the medium was changed every 3 days. When the cultures reached confluence, they were shaken overnight at 250 rpm and at 37 °C in order to detach the OPCs located on the top of the confluent astrocyte monolayer and the medium was then filtered through a 40μm nylon mesh strainer (BDBiosciences) and centrifuged at 900 rpm. Cells were seeded twice (45 minutes each) in bacterial grade Petri dishes (Sterilin) to remove microglial cells. The resulting enriched oligodendrocyte progenitor cell suspension was counted and seeded.
(§2) Purified OPCs were placed on coverslips coated with poly-L-lysine and laminin in 24-well tissue culture dishes at a density of 2 × 10^4 cells/well. To promote differentiation, the cells were maintained in the differentiation medium (described above) and PDE7-GSK3 or GSK3 inhibitors (VP3.15 or TDZD8; 1 μM) were added to the culture medium. Different controls were used for the dual or single inhibitors due to the active substance being dissolved in differing amounts of DMSO. After 5, 7 and 10 DIV the cells were fixed with 4% PFA for further immunocytochemical analysis. Anti-CNPase antibodies (1:200;Covance; Cat#SMI-91R), anti-MBP antibodies (1:200; Serotec; Cat#MCA4095) for detecting oligodendrocytes and anti-Olig2 antibodies (1:250; Millipore; Cat#AB9610) as a marker for all oligodendroglial stages were used. Ten random fluorescence digital images were taken in each coverslip with a DFC480 FX digital camera (Leica) coupled to a Leica DM5000 B microscope for quantification. Data were expressed as a mean ratio of differentiated oligodendrocytes (CNPase^+-Olig2^+ double positive cells) with respect to total Olig2^+ cells ± SEM or percentage of CNPase^+ cells respect to control ± SEM, in at least three independent experiments, except with human samples (two independent experiments).

adult human OPCs = test: Differentiation assay, adult human OPCs; type: cell-based; conditions: adult human OPCs, 1 μM, 5 DIV
Description: Human brain samples were obtained from adult patients of temporal lobe epilepsy resistant to pharmacological treatment or traumatic brain injury; they underwent surgical treatment by the Neurosurgery Service at the Hospital Universitario de La Princesa (Madrid, Spain) and Hospital 12 de Octubre (Madrid, Spain). All tissue samples were obtained under protocols approved by the Research Ethics Committee of Toledo (Spain) review boards. All were conducted in accordance with the Helsinki Declaration and were approved by the Research Ethics Committee of Toledo (Spain). All patients provided informed consent prepared under the guidelines of the Research Ethics Committee at their respective hospital in Madrid (Spain).
For cells obtained from human biopsies, the same protocol was used except that papain solution was used 1:2.5 in HBSS for 10 minutes for meningeal disintegration and 1:10 in HBSS for 15 minutes for the tissue digestion, 25 cm[2] flasks were used, the medium was supplemented with 10 ng/ml of human PDGF-AA (Millipore) for 2 weeks and then incubated for 2 more weeks without growth factors before shaking and the shaking was carried out at 230 rpm instead of 250 rpm.
as §2

OPCs from P0 mice [2] = test: Survival assay (Casp3+-A2B5+ cells); type: cell-based, mouse; conditions: murine P0 OPCs, 1 μM, 2 DIV
Description: as §1, with “When the cultures reached confluence, they were shaken overnight at 250 rpm and at 37 °C in order to detach the OPCs located on the top of the confluent astrocyte monolayer and the medium was then filtered through a 40μm nylon mesh strainer (BDBiosciences) and centrifuged at 900 rpm. Cells were seeded twice (45 minutes each) in bacterial grade Petri dishes (Sterilin) to remove microglial cells.” left out, “seeded. […]” for “seeded.”

OPCs from P0 mice [3] = test: Proliferation assay (BrdU incorporation); type: cell-based, mouse; conditions: murine P0 OPCs, 1 μM, 72 h
Description: We isolated OPCs, as previously described. Briefly, a stock papain solution was prepared containing ([…]; Worthington Biochemical), L-cysteine (0.2 mg/ml; Sigma), and EDTA (0.2 mg/ml; Sigma) in Hank’s Balanced Salt Solution (HBSS; Invitrogen) without Ca^2+ and Mg[2]. Then, the cerebral cortices of P0 CD1 mice were dissected out and placed for 5 minutes at 37 °C in a medium containing the stock papain solution in HBSS with Ca^2+ and Mg^2+ (1:10; Invitrogen) in order to easily remove the meninges. […] The resulting enriched oligodendrocyte progenitor cell suspension was counted and seeded.
OPCs were placed on coverslips coated with poly-L-lysine (Sigma) and laminin (Sigma; 2 × 10^4 cells/well) and they were incubated with the inhibitors (VP3.15 or TDZD8; 1 μM) in the serum free medium described above. After 42 h in culture, BrdU (50 μM; Sigma) was added for 6 h and after a total of 72 h in culture, the cells were fixed and BrdU incorporation was detected by immunocytochemistry (1:20; G3G4, HybridomaBank) combined with the detection of the oligodendroglial marker Olig2 (1:250; Millipore; Cat#AB9610). […]

[4] = system: cerebellar slices demyelinated with LPC; test: Ex vivo remyelination in cerebellar slice cultures demyelinated with LPC; type: cell-based, CD1 P7 mice; conditions: 5 μM, 3 days post lesion (3DPL)
Description: The protocol used was modified from previously described. CD1 P7 mice were decapitated, and their cerebella were dissected into ice-cold HBSS (Invitrogen). 300 μm sagittal slices of cerebellum were cut using a McIllwain tissue chopper, placed on Millicell-CM organotypic culture inserts (3 slices per insert; Millipore) in a medium containing HBSS:BME: horse serum (1:2:1, Invitrogen), 28 mM D (+) - glucose (Normapur), […] L-Glutamine (Invitrogen) and 100 U/mL penicillin, 0.1 mg/mL streptomycin and 0.25 μg/ml Amphotericin B antibiotic anti-mycotic solution (Sigma) and maintained at 5% CO2 and 37 °C. Medium was changed every two days, and after 7 days in culture, demyelination was induced by addition of 0.5 mg/ml LPC (Sigma) to the medium for 15 h. After that, slices were treated with fresh medium containing PDE7-GSK3 or GSK3 inhibitors (VP1.15, VP3.15 or TDZD8; 5 μM). Cultures were maintained for 1 or 3 days post lesion (DPL), and then fixed for 40 minutes and immunostained with anti-MBP antibodies (myelin basic protein –as a marker of myelin; 1:200; Serotec; Cat#MCA4095) and anti-neurofilament antibody (as a marker of axons; 1:200; Abcam; Cat#ab8135). Fluorescence images were taken on a confocal SP5 resonant scanner (Leica Microsystems) at 1μm intervals in white matter areas at x40 magnification. The photographs were merged and co-localisation of both markers was quantified with Image J software using the colocalization highlighter plugin. This measurement was related to the area occupied by axons (neurofilament staining) and normalized with control values showing the data as the mean normalized myelination index ± SEM. Quantification was made in at least three independent experiments.

PDE7 = system: PDE7; design: method as in PMID 24437940; conditions: cited from earlier work
GSK-3 = system: GSK-3; design: method as in PMID 24437940; conditions: read-out: GSK-3 inhibition IC50; cited from earlier work

SMILES: Cn1sc(=O)n(Cc2ccccc2)c1=O [TDZD8, reference compound]
- number of mature oligodendrocytes (CNPase+-Olig2+ cells) vs control [1]: no effect
- number of CNPase+-Olig2+ cells vs control (differentiation) (adult human OPCs): did not show any effect
- OPC survival (Casp3+-A2B5+ apoptotic cells) (OPCs from P0 mice [2]): increased OPC survival
- OPC proliferation (BrdU+-Olig2+ cells) (OPCs from P0 mice [3]): no changes
- remyelination (normalized myelination index) [4]: no effect
- PDE7 inhibition (PDE7): does not inhibit PDE7
- IC50 (PDE7; read-out: PDE7 inhibition IC50): > 100000 nM
- IC50 (GSK-3): 690 nM
